Assay results taken from patent publication US20120197004A1, “NOVEL ANTI-MICROBIAL PEPTIDOMIMETIC COMPOUNDS AND METHODS TO CALCULATE ANTI-MICROBIAL ACTIVITY” (priority 2006, published 2012).
Read-outs that look alike come from different tables or passages of the source. Where a SMILES comes first, the peptide text is derived from it. [ ]: non-standard residue; d: D form. ξ: configuration not given here. Oic = O=C(O)[C@@H]1C[C@@H]2CCCC[C@@H]2N1; Tic = O=C(O)[C@@H]1Cc2ccccc2CN1; 2Thi = N[C@@H](Cc1cccs1)C(=O)O; ξTic = O=C(O)C1Cc2ccccc2CN1; ξOic = O=C(O)C1CC2CCCCC2N1; βAla = NCCC(=O)O

Experiments:
mouse cutaneous injury = test: Mouse skin wound healing model; format: in vivo, CD-1 derived male mice; conditions: topical once daily for 10 days; test substances 100 μg/mouse, CGS-21680 10 μg/mouse
Description: In-vivo assays: Selected compounds were evaluated in an in-vivo mouse skin wound healing model by MDS Pharma Services using the following protocol. Groups of CD-1 derived male mice (n=5) weighting 24±2 g were used. Under hexobarbitol (90 mg/kg, IP) anesthesia, the shoulder and back region of each animal was shaved. A sharp punch (ID 12 mm) was applied to remove the skin including panniculus carnosus and adherent tissues. […] The percent closure of the wound (%) was calculated, and wound half-closure time (CT50) was analyzed by linear regression using Graph-Prism (Graph Software USA). One-way ANOVA followed by Dunnett's test was applied for comparison between the treated and its corresponding vehicle groups at each measurement time point. Differences are considered statistically significant at P<0.05.^41

[1] = system: Staphylococcus aureus Methicillin/Gentamicin/Tetracycline Resistant (ATCC 33592); conditions: in vitro MIC; tested at 100, 30, 10, 3, 1, 0.3 and 0.1 μM in 1% DMSO
[2] = system: Mycobacterium ranae (ATCC 110); conditions: ATCC 110
F. tularensis SCHU-S4 = conditions: in vitro MIC
Bacillus anthracis Ames = conditions: in vitro MIC
B. melitensis 16M = conditions: in vitro MIC
Plague CO92 = conditions: in vitro MIC
in vitro [3] = conditions: dog, microsomes, pH 7.4
in vitro [4] = conditions: rat, microsomes, pH 7.4
in vitro [5] = conditions: mouse, microsomes, pH 7.4

SMILES | Minimum Inhibitory Concentration Staphylococcus aureus ME/GM/TC resistant [1] | Minimum Inhibitory Concentration Mycobacterium ranae [2] | Minimum Inhibitory Concentration F. tularensis SCHU-S4 (F. tularensis SCHU-S4) | Minimum Inhibitory Concentration B. melitensis 16M (B. melitensis 16M) | remaining at 0.5 h, 1 μM (in vitro [3]) | remaining at 0.25 h, 1 μM (in vitro [4]) | remaining at 0.25 h, 1 μM (in vitro [5]) | other results
CCNC(=O)[C@H]1O[C@@H](n2cnc3c(N)nc(NCCc4ccc(CCC(=O)O)cc4)nc32)[C@H](O)[C@@H]1O [CGS-21680, 2-p-[2-carboxyethyl]phenethyl-amino-5′-N-ethylcarboxamide-adenosine, reference compound] |  |  |  |  |  |  |  | CT50 (wound half-closure time) (mouse cutaneous injury): 5.4 days; wound closure Day 3 (mouse cutaneous injury): 41.1%; wound closure Day 5 (mouse cutaneous injury): 54.6%; wound closure Day 7 (mouse cutaneous injury): 70.6%; wound closure Day 9 (mouse cutaneous injury): 77.6%; wound closure Day 11 (mouse cutaneous injury): 84.3%
NCCCC[C@H](NC(=O)[C@H](CCCCN)NC(=O)[C@H](CCCCN)NC(=O)[C@H](CCCCN)NC(=O)C1Cc2ccccc2CN1C(=O)[C@H](CCCCN)NC(=O)CNC(=O)C1CC2CCCCC2N1C(=O)C1Cc2ccccc2CN1C(=O)[C@H](Cc1ccccc1)NC(=O)CNC(=O)C1CC2CCCCC2N1C(=O)C1Cc2ccccc2CN1C(=O)[C@H](CCCCN)NC(=O)CNC(=O)C1CC2CCCCC2N1C(=O)C1Cc2ccccc2CN1C(=O)[C@H](Cc1ccccc1)NC(=O)CNC(=O)[C@@H](N)Cc1cccs1)C(N)=O (stereo partly drawn) [FKAB-1G-Thi, Thi-GF-Tic-Oic-GK-Tic-Oic-GF-Tic-Oic-GK-Tic-KKKK-CONH2] (H-[2Thi]GF[ξTic][ξOic]GK[ξTic][ξOic]GF[ξTic][ξOic]GK[ξTic]KKKK-NH2) | 10 µM | 30 µM | 250 µg/mL | >500 µg/mL | 61% | 107% | 41% | Minimum Inhibitory Concentration Bacillus anthracis Ames (Bacillus anthracis Ames; listed as 56): 1.95 µg/mL; Minimum Inhibitory Concentration Plague CO92 (Plague CO92; listed as 56): 15.6 µg/mL; remaining at 0.5 h, 1 μM (in vitro [4]): 61%; remaining at 0.5 h, 1 μM (in vitro [5]): 67%
CC(=O)NCC(=O)N[C@@H](Cc1ccccc1)C(=O)N1Cc2ccccc2C[C@H]1C(=O)N1[C@H](C(=O)NCC(=O)N[C@@H](CCCCN)C(=O)N2Cc3ccccc3C[C@H]2C(=O)N2[C@H](C(=O)NCC(=O)N[C@@H](Cc3ccccc3)C(=O)N3Cc4ccccc4C[C@H]3C(=O)N3[C@H](C(=O)NCC(=O)N[C@@H](CCCCN)C(=O)N4Cc5ccccc5C[C@H]4C(=O)NCCC(=O)N[C@@H](CCCCN)C(=O)N[C@@H](CCCCN)C(=O)N[C@@H](CCCCN)C(=O)N[C@@H](CCCCN)C(N)=O)C[C@@H]4CCCC[C@@H]43)C[C@@H]3CCCC[C@@H]32)C[C@@H]2CCCC[C@@H]21 [FKAB-1G-βA, Ac-GF-Tic-Oic-GK-Tic-Oic-GF-Tic-Oic-GK-Tic-βAla-KKKK-CONH2] (Ac-GF[Tic][Oic]GK[Tic][Oic]GF[Tic][Oic]GK[Tic][βAla]KKKK-NH2) | 30 µM | 10 µM | 250 µg/mL | >500 µg/mL | 66% | 118% | 11% | Minimum Inhibitory Concentration Bacillus anthracis Ames (Bacillus anthracis Ames; listed as 52): 1.95 µg/mL; Minimum Inhibitory Concentration Plague CO92 (Plague CO92; listed as 52): 31.25 µg/mL; remaining at 1 h, 1 μM (in vitro [3]): 105%; remaining at 1 h, 1 μM (in vitro [4]): 44%
